The results in this text go back to patent US20210269434A1, “TRICYCLIC COMPOUNDS AS INHIBITORS OF KRAS” (Incyte Corporation, priority 2020, published 2021).

The test system of test [1] is MIA PaCa-2 (KRAS G12C) cells. Kind of test: Cellular pERK HTRF assay (KRAS_G12C pERK). Conditions: Homo sapiens, MIA PaCa-2, 4 hours incubation, read-out: G12C_pERK. The class given is cell-based, human. Summed up: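 MIA PaCa-2 cells plated overnight, then exposed to compound for 4 h at 37 °C (G12C compounds). Phospho-ERK1/2 measured in lysates by HTRF (665/620 nm) after overnight antibody incubation; IC50 from percent inhibition versus log concentration.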
(In TR-FRET formats the signal depends on donor and acceptor labels being close together.)

Test [2] addresses KRAS G12C (Homo sapiens, UniProt P01116, G12C). Kind of test: GDP-GTP exchange assay (KRAS_G12C exchange). The test is classed as biochemical. Conditions: bodipy-GDP loaded KRAS G12C 2.5 nM, SOS1 150 nM, GppNHp; 2 hours pre-incubation, 2 hours reaction; read-out: G12C_exchange. A digest of the protocol: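 Fluorescence exchange of bodipy-GDP for GppNHp, SOS1-driven, read at 485/520 nm; IC50 from four-parameter variable-slope fit. Both mutants used 2.5 nM final labelled protein and a 2 h compound pre-incubation. G12C reaction had 500 uM GppNHp and 150 nM SOS1 for 2 h; G12D ran 4 h.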

KRAS G12C, sequence (P01116 1-188 isoform P01116-2 G12C): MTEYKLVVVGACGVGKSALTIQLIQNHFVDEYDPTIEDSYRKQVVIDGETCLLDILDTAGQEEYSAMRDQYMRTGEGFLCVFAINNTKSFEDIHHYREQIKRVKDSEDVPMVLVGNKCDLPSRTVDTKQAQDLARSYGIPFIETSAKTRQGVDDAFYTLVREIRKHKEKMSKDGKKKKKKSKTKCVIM

As to `C=CC(=O)N1CC[C@H](n2cnc3c(N4CC(N(C)C)C4)nc4c(F)c(-c5cc(C)ccc5C)c(Cl)cc4c32)C[C@H]1CC#N` [Example 60, 2-((2S,4S)-1-acryloyl-4-(8-chloro-4-(3-(dimethylamino)azetidin-1-yl)-7-(2,5-dimethylphenyl)-6-fluoro-1H-imidazo[4,5-c]quinolin-1-yl)piperidin-2-yl)acetonitrile], the IC50 in test [1] and in test [2] was not above 100 nM in each case.

In the case of `CC#CC(=O)N1CCC(n2cnc3c(N4CC(N(C)CC)C4)nc4c(F)c(-c5cccc6cccc(Cl)c56)c(C)cc4c32)C[C@H]1CC#N` (single isomer, unassigned) [Example 224a], the IC50 in test [1] and in test [2] was not above 100 nM in each case.

Regarding `C=CC(=O)N1CC[C@H](n2cnc3c(N4CC(N(C)C)C4)nc4c(F)c(-c5cccc6cccc(Cl)c56)c(Cl)cc4c32)C[C@H]1CC#N` [Example 265, 2-((2S,4S)-1-acryloyl-4-(8-chloro-7-(8-chloronaphthalen-1-yl)-4-(3-(dimethylamino)azetidin-1-yl)-6-fluoro-1H-imidazo[4,5-c]quinolin-1-yl)piperidin-2-yl)acetonitrile], the IC50 in test [1] and in test [2] was not above 100 nM in each case.

Take `C=CC(=O)N1CCC(n2cnc3c(OC[C@@H]4CCCN4C)nc4c(F)c(-c5cc(O)cc6ccccc56)c(Cl)cc4c32)C1` (mixture of isomers) [Example 7, 1-(3-(8-chloro-6-fluoro-7-(3-hydroxynaphthalen-1-yl)-4-(((S)-1-methyl-pyrrolidin-2-yl)methoxy)-1H-imidazo[4,5-c]quinolin-1-yl)pyrrolidin-1-yl)prop-2-en-1-one]: the IC50 in test [1] and in test [2] was not above 100 nM each time.

`C=CC(=O)N1CC[C@H](n2nnc3c(OC[C@@H]4CCCN4C)nc4c(Cl)c(-c5cccc(C)c5Cl)c(Cl)cc4c32)C[C@H]1CC#N` [Example 286, 2-((2S,4S)-1-acryloyl-4-(6,8-dichloro-7-(2-chloro-3-methylphenyl)-4-(((S)-1-methylpyrrolidin-2-yl)methoxy)-1H-[1,2,3]triazolo[4,5-c]quinolin-1-yl)piperidin-2-yl)acetonitrile]: the IC50 in test [1] and in test [2] was not above 100 nM each time.

Take `Cc1cccc(-c2c(C)cc3c(nc(N4CC(N(C)C)C4)c4nnn([C@H]5CCN(C(=O)/C=C/C(F)F)[C@H](CC#N)C5)c43)c2F)c1C` [Example 148, 2-((2S,4S)-1-((E)-4,4-difluorobut-2-enoyl)-4-(4-(3-(dimethylamino)azetidin-1-yl)-7-(2,3-dimethylphenyl)-6-fluoro-8-methyl-1H-[1,2,3]triazolo[4,5-c]quinolin-1-yl)piperidin-2-yl)acetonitrile]: the IC50 in test [1] and in test [2] was not above 100 nM in each case.

In the case of `C=CC(=O)N1CCC(n2cnc3c(OC[C@@H]4CCCN4C)nc4c(F)c(-c5cc(O)ccc5C)c(Cl)cc4c32)CC1CC#N` (single isomer, unassigned) [Example 39a], the IC50 in test [1] and in test [2] was not above 100 nM in each case.

As for `C=CC(=O)N1CCC(n2cnc3c(OC[C@@H]4CCCN4C)nc4c(F)c(-c5c(C)ccc6[nH]ncc56)c(Cl)cc4c32)CC1CC#N` (single isomer, unassigned) [Example 37a], the IC50 in test [1] and in test [2] was not above 100 nM in each case.

Take `Cc1c(Cl)cccc1-c1c(Cl)cc2c(nc(OC[C@@H]3CCCN3C)c3nnn([C@H]4CCN(C(=O)/C=C/CN(C)C)[C@H](CC#N)C4)c32)c1F` [Example 88, 2-((2S,4S)-4-(8-chloro-7-(3-chloro-2-methylphenyl)-6-fluoro-4-(((S)-1-methylpyrrolidin-2-yl)methoxy)-1H-[1,2,3]triazolo[4,5-c]quinolin-1-yl)-1-((E)-4-(dimethylamino)but-2-enoyl)piperidin-2-yl)acetonitrile]: the IC50 in test [1] and in test [2] was not above 100 nM throughout.

For the molecule `CC#CC(=O)N1CC[C@H](n2nnc3c(N4CC(N(C)C)C4)nc4c(F)c(-c5cccc(C)c5C)c(C)cc4c32)C[C@H]1CC#N` [Example 207, 2-((2S,4S)-1-(but-2-ynoyl)-4-(4-(3-(dimethylamino)azetidin-1-yl)-7-(2,3-dimethylphenyl)-6-fluoro-8-methyl-1H-[1,2,3]triazolo[4,5-c]quinolin-1-yl)piperidin-2-yl)acetonitrile], the IC50 in test [1] and in test [2] was not above 100 nM throughout.

As for `COc1c(C)cccc1-c1c(C(F)(F)F)cc2c(nc(N3CC(C)(N(C)C)C3)c3nnn([C@H]4CCN(C(=O)/C=C/CN(C)C)[C@H](CC#N)C4)c32)c1F` [Example 246, 2-((2S,4S)-4-(7-(2-methoxy-3-methylphenyl)-4-(3-(dimethylamino)-3-methylazetidin-1-yl)-6-fluoro-8-(trifluoromethyl)-1H-[1,2,3]triazolo[4,5-c]quinolin-1-yl)-1-((E)-4-(dimethylamino)but-2-enoyl)piperidin-2-yl)acetonitrile], the IC50 in test [1] and in test [2] was not above 100 nM each time.

Regarding `Cc1cccc(-c2c(C)cc3c(nc(O[C@@H](C)CN(C)C)c4nnn([C@H]5CCN(C(=O)/C=C/C(F)F)[C@H](CC#N)C5)c43)c2F)c1C` [Example 144, 2-((2S,4S)-1-((E)-4,4-difluorobut-2-enoyl)-4-(4-(((S)-1-(dimethylamino)-propan-2-yl)oxy)-7-(2,3-dimethylphenyl)-6-fluoro-8-methyl-1H-[1,2,3]triazolo[4,5-c]quinolin-1-yl)piperidin-2-yl)acetonitrile], the IC50 in test [1] and in test [2] was not above 100 nM in each case.

Turning to `Cc1cc2c(nc(OC[C@@H]3CCCN3C)c3nnn([C@H]4CCN(C(=O)/C=C/CF)[C@H](CC#N)C4)c32)c(F)c1-c1ccccc1C(F)(F)F` (single isomer, unassigned) [Example 159a], the IC50 in test [1] and in test [2] was not above 100 nM in each case.

In the case of `C=CC(=O)N1CC[C@H](n2nnc3c(N4CC(C)(N(C)C)C4)nc4c(F)c(-c5c(C)c(C)cc6[nH]ncc56)c(C)cc4c32)C[C@H]1CC#N` (single isomer, unassigned) [Example 198a], the IC50 in test [1] and in test [2] was not above 100 nM in each case.

Take `C=CC(=O)N1CC[C@H](n2nnc3c(O[C@@H](C)CN(C)C)nc4c(F)c(-c5ccc(F)cc5)c(C)cc4c32)C[C@H]1CC#N` [Example 132, 2-((2S,4S)-1-acryloyl-4-(4-(((S)-1-(dimethylamino)propan-2-yl)oxy)-6-fluoro-7-(4-fluorophenyl)-8-methyl-1H-[1,2,3]triazolo[4,5-c]quinolin-1-yl)piperidin-2-yl)acetonitrile]: the IC50 in test [1] and in test [2] was not above 100 nM in each case.

Take `C=CC(=O)N1CC[C@H](n2cnc3c(N4CC(N(C)C)C4)nc4c(F)c(-c5cc(O)ccc5Cl)c(Cl)cc4c32)C[C@H]1CC#N` (single isomer, unassigned) [Example 54a]: the IC50 in test [1] and in test [2] was not above 100 nM throughout.

Take `CC#CC(=O)N1CC[C@H](n2nnc3c(N4CC(N(C)C)C4)nc4c(Cl)c(-c5cccc6cccnc56)c(Cl)cc4c32)C[C@H]1CC#N` (single isomer, unassigned) [Example 277a]: the IC50 in test [1] and in test [2] was not above 100 nM throughout.

Take `Cc1cc2c(nc(OC[C@@H]3CCCN3C)c3nnn([C@H]4CCN(C(=O)/C=C/CF)[C@H](CC#N)C4)c32)c(F)c1-c1ccc(F)cc1` [Example 136, 2-((2S,4S)-4-(6-fluoro-7-(4-fluorophenyl)-8-methyl-4-(((S)-1-methylpyrrolidin-2-yl)methoxy)-1H-[1,2,3]triazolo[4,5-c]quinolin-1-yl)-1-((E)-4-fluorobut-2-enoyl)piperidin-2-yl)acetonitrile]: the IC50 in test [1] and in test [2] was not above 100 nM throughout.

Consider `CC#CC(=O)N1CC[C@H](n2nnc3c(N4CC(C)(N(C)C)C4)nc4c(F)c(-c5cccc(Cl)c5C)c(C(F)(F)F)cc4c32)C[C@H]1CC#N` [Example 239a, 2-((2S,4S)-1-(but-2-ynoyl)-4-(7-(3-chloro-2-methyl-phenyl)-4-(3-(dimethyl-amino)-3-methylazetidin-1-yl)-6-fluoro-8-(trifluoro-methyl)-1H-[1,2,3]triazolo-[4,5-c]quinolin-1-yl)piperidin-2-yl)acetonitrile], for which the IC50 in test [1] and in test [2] was not above 100 nM in each case.

For the molecule `C=CC(=O)N1CC[C@H](n2nnc3c(N4CC(N(C)C)C4)nc4c(F)c(-c5ccccc5C5CC5)c(Cl)cc4c32)C[C@H]1CC#N` [Example 117, 2-((2S,4S)-1-acryloyl-4-(8-chloro-7-(2-cyclopropylphenyl)-4-(3-(dimethylamino)azetidin-1-yl)-6-fluoro-1H-[1,2,3]triazolo[4,5-c]quinolin-1-yl)piperidin-2-yl)acetonitrile], the IC50 in test [1] and in test [2] was not above 100 nM in each case.

Take `C=CC(=O)N1CC[C@H](n2nnc3c(-n4ccnc4C)nc4c(F)c(-c5ccccc5)c(C)cc4c32)C[C@H]1CC#N` [Example 156, 2-((2S,4S)-1-acryloyl-4-(6-fluoro-8-methyl-4-(2-methyl-1H-imidazol-1-yl)-7-phenyl-1H-[1,2,3]triazolo[4,5-c]quinolin-1-yl)piperidin-2-yl)acetonitrile]: the IC50 in test [1] and in test [2] was not above 100 nM throughout.

Turning to `CN(C)C/C=C/C(=O)N1CCC(n2nnc3c(N4CC(C)(N(C)C)C4)nc4c(F)c(-c5cccc6cccc(Cl)c56)c(Cl)cc4c32)C[C@H]1CC#N` (stereo partly drawn) [Example 217, 2-((2S)-4-(8-chloro-7-(8-chloronaphthalen-1-yl)-4-(3-(dimethylamino)-3-methylazetidin-1-yl)-6-fluoro-1H-[1,2,3]triazolo[4,5-c]quinolin-1-yl)-1-((E)-4-(dimethylamino)but-2-enoyl)piperidin-2-yl)acetonitrile], the IC50 in test [1] and in test [2] was not above 100 nM in each case.
